Assay results reported in US11725011B2, “Bicyclic urea kinase inhibitors and uses thereof” (The Broad Institute, Inc., priority 2016, dated 2023).

Legend:
SIK2 = SIK2 (Homo sapiens (Human), UniProt Q9H0K1); test: Percent activity against SIK2 at 1 μM; assay type: biochemical; settings: for SIK2 % ACTIVITY: compound at 1 μM, approximate Km for ATP
SIK1 = SIK1 (Homo sapiens (Human), UniProt P57059); test: Percent activity against SIK1 at 1 μM; assay type: biochemical; settings: for SIK1 % ACTIVITY: compound at 1 μM, approximate Km for ATP
SIK1, sequence (P57059 whole entry): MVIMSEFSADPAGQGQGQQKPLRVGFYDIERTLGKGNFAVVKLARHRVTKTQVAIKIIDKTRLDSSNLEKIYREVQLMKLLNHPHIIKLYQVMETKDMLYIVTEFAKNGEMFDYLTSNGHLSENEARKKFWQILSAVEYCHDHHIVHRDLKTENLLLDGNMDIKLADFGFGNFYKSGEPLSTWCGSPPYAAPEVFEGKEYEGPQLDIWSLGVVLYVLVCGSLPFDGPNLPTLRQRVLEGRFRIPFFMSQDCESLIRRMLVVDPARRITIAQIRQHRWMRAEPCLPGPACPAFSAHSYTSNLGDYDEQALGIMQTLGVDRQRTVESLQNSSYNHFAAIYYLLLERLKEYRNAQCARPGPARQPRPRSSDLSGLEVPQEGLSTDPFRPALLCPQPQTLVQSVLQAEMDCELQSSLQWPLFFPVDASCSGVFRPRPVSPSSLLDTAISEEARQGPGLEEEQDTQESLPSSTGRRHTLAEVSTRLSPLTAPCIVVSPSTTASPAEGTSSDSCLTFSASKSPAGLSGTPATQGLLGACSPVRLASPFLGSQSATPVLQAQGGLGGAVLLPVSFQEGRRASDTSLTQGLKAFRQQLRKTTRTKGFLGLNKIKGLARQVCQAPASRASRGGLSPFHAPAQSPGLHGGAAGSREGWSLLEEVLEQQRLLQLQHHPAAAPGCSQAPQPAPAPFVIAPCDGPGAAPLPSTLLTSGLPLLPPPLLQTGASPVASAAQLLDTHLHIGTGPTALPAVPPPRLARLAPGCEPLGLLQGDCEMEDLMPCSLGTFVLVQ

Viability loss (Table 4) = assay type: cell-based
[1] = qAC50 biological assay (Table 4); settings: for Data Mode: curve direction of qAC50 data
SIK3 = SIK3 (Homo sapiens (Human), UniProt Q9Y2K2); test: Percent activity against SIK3 at 1 μM; assay type: biochemical; settings: for SIK3 % ACTIVITY: compound at 1 μM, approximate Km for ATP
SIK3, sequence (Q9Y2K2 whole entry): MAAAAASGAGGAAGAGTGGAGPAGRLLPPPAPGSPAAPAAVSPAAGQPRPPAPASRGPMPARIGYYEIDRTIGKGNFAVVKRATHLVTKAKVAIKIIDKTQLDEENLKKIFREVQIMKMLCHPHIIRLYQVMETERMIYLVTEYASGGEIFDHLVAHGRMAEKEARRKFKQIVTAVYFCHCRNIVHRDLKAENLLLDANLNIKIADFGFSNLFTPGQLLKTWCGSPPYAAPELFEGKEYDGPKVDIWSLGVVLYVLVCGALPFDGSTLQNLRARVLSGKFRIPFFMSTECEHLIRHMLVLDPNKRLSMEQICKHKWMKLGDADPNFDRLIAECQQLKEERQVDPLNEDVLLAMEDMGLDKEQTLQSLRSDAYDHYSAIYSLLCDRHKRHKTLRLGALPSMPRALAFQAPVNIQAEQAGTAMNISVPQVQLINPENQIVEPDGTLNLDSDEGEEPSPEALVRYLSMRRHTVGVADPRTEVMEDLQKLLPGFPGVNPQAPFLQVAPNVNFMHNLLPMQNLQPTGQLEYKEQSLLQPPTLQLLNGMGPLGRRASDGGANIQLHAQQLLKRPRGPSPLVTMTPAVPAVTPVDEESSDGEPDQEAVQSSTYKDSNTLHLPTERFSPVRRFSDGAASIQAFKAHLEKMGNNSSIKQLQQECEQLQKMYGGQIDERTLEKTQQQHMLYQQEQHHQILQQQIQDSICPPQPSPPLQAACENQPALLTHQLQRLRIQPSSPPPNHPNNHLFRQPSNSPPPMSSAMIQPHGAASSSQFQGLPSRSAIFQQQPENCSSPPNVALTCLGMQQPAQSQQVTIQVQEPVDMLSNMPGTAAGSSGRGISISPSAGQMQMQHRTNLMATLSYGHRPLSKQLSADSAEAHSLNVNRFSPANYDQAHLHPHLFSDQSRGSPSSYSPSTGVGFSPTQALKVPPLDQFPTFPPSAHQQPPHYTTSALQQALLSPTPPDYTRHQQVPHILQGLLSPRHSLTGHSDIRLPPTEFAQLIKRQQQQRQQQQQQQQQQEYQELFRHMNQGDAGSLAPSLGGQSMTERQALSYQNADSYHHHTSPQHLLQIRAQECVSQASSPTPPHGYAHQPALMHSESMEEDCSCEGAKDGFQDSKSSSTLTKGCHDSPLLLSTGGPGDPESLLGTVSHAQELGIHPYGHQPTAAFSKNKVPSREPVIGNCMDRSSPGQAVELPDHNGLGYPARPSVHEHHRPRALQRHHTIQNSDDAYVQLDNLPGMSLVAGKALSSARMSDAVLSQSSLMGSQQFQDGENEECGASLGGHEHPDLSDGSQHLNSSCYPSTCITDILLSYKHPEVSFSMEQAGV

[2] = molecular target: full length His6-MBP-tagged hSIK2 (Homo sapiens (Human), UniProt Q9H0K1); test: SIK2 kinase activity assay (Caliper-based mobility shift); assay type: biochemical; settings: 4 nM hSIK2, 30 μM ATP, 1 hr, rt
full length His6-MBP-tagged hSIK2, sequence (Q9H0K1 whole entry): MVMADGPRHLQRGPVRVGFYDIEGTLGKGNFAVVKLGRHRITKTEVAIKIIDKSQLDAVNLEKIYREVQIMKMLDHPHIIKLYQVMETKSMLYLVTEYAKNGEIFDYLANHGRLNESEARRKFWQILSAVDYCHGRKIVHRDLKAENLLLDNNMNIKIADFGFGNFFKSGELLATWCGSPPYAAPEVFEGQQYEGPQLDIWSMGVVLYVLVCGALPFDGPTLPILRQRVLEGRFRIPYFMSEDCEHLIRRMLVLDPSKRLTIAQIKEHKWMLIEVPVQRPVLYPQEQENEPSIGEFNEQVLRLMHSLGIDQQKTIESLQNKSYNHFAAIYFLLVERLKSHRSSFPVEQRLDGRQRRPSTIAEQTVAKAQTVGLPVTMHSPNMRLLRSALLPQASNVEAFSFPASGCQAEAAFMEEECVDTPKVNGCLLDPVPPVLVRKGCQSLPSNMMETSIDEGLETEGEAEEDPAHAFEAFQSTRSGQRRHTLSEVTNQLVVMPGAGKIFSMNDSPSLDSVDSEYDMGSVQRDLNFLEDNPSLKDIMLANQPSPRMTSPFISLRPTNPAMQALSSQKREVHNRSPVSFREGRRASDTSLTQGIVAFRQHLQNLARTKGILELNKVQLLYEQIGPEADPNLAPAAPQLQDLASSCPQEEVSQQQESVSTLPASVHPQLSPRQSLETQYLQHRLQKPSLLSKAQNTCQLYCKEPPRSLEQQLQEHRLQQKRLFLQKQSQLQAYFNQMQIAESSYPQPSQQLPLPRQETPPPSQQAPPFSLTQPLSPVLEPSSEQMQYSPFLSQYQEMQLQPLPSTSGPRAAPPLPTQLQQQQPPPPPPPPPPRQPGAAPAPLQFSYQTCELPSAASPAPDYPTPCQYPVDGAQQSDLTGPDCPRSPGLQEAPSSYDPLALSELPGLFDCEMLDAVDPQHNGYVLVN
Method: Reactions were quenched by adding 20 mM EDTA (pH 8) after 1 hr, and percentage of substrate conversion was measured by LabChip EZ Reader II (PerkinElmer).

SIK2, sequence (Q9H0K1 whole entry): as above

| SMILES | SIK2 % ACTIVITY (SIK2) [%] | SIK1 % ACTIVITY (SIK1) [%] | Viability loss AC40 (Viability loss (Table 4)) [nM] | Viability loss data mode (Viability loss (Table 4)) | qAC50 [1] [nM] | Data Mode [1] | Enzyme activity at 1 μM (%) SIK2 (SIK2) [%] | Enzyme activity at 1 μM (%) SIK1 (SIK1) [%] | Enzyme activity at 1 μM (%) SIK3 (SIK3) [%] | SIK3 % ACTIVITY (SIK3) [%] | IC50 [2] [nM] |
| --- | --- | --- | --- | --- | --- | --- | --- | --- | --- | --- | --- |
| Cc1ccc(Nc2ncc3c(n2)N(C)C(=O)N(c2cc(NC(=O)c4cccc(C(F)(F)F)c4)ccc2C)C3)cn1 [GNF-7] | 27.4 | 12.0 |  |  |  |  |  |  |  |  |  |
| Cc1ccc(NC(=O)c2cccc(C(F)(F)F)c2)cc1N1Cc2cnc(Nc3ccc(N4CCN(C)CC4)cc3)nc2N(C)C1=O [HG-11-23-01] | 7.0 | 12.5 | 106 | decreasing | <50 | decreasing | 7 | 12.5 |  |  |  |
| CN1CCN(c2ccc(Nc3ncc4c(n3)N(C)C(=O)N(c3ccccc3)C4)cc2)CC1 [HG-11-137-01] | 1.4 | 12.9 | 6960 | decreasing | 466 | increasing | 1.4 | 12.9 | 8.6 | 8.6 |  |
| COc1ccc(N2C(=O)N(c3c(C)cccc3C)Cc3cnc(Nc4ccc(N5CCN(C)CC5)cc4OC)nc32)c(OC)c1 [HG-11-139-01] | 2.1 | 15.3 | 8910 | decreasing | <50 | increasing | 2.1 | 15.3 | 7.5 | 7.5 |  |
| COc1cc(N2CCN(C)CC2)ccc1Nc1ncc2c(n1)N(C)C(=O)N(c1ccccc1)C2 [HG-11-139-02] | 32.8 | 36.0 | > 10000 | inactive | >26000 | increasing |  |  |  |  |  |
| COc1ccc(N2C(=O)N(c3c(C)cccc3C)Cc3cnc(Nc4cc(N5CCOCC5)cc(N5CCN(C)CC5)c4)nc32)c(OC)c1 [HG-11-143-01] | 4.3 | 7.9 |  |  | 469 | decreasing | 4.3 | 7.9 | 9.3 | 9.3 |  |
| COc1ccc(N2C(=O)N(c3c(C)cccc3Cl)Cc3cnc(Nc4ccc(N5CCN(C)CC5)cc4)nc32)nc1 [YKL-05-95] |  |  |  |  |  |  |  |  |  |  | 6 ± 3 |
| COc1ccc(N2C(=O)N(c3c(C)cccc3Cl)Cc3cnc(Nc4ccc(N5CCN(C)CC5)cc4OC)nc32)nc1 [YKL-05-96] |  |  |  |  |  |  |  |  |  |  | 34 ± 14 |
